Measurements: patent publication US5480906A, “Stereochemical Wortmannin derivatives” (priority 1994, dated 1996)

Legend:
[1] = molecular target: purified bovine brain PI 3-kinase; experiment: Assay of purified PI-3 kinase activity (32P incorporation into phosphatidylinositol, TLC/scintillation); type: biochemical; conditions: for IC50 for inhibition of PI-3-kinase: purified bovine brain PI 3-kinase, 10 min preincubation, 20 μM ATP, 3% DMSO
Procedure: In another, preferred, method, PI 3-kinase was prepared from bovine brain. Two bovine brains (wet weight about 900 g) were obtained from a local slaughterhouse within minutes of slaughter, packed on ice, and homogenized within one hour. Brains were trimmed of excess fat and blood vessels and then homogenized using a Tekmar Tissuemizer (Cincinnati, Ohio) at 4° C. in 20 mM of Tris(pH 8.3) containing 250 mM of sucrose, 6 mM of β-mercaptoethanol, 1 μg/ml of leupeptin, 1 μg/ml of pepstatin A, 0.4 mM of PMSF, and 1 mM of MgCl2.
Following centrifugation for 60 minutes at 10,000 x g, the pH of the supernatant (about 1200 mL) was lowered to 5.75 using dropwise addition of 1M acetic acid at 4° C. After stirring for an additional 15 minutes at 4° C., the solution was centrifuged for 60 minutes at 13,500 x g. The supernatant was discarded. Pellets were resuspended in Buffer A (20 mM of Tris, pH 8.3, containing 6 mM of β-mercaptoethanol, 0.1 mM of ethylene glycol-bis(β-aminoethyl ether) N,N,N',N'-tetraacetic acid (EGTA), 1 μg/mL of leupeptin, 1 μg/mL of pepstatin A, and 1 mM of MgCl2), and loaded onto a Fast Flow Q Sepharose column (300 ml) at a flow rate of 5 mL/min at 4° C. After loading, the column was washed with 3 volumes of Buffer A containing 0.1M of KCl and the kinase was then eluted with a linear gradient of Buffer A/0.1M KCl to Buffer A/0.6M KCl at 3 mL/min over 7 volumes.
Fractions were assayed for PI 3-kinase activity using 10 μL of the fraction and phosphatidylinositol as substrate as described below. PI 4-kinase eluted in the breakthrough; PI 3-kinase eluted at approximately 0.3M of KCl. The PI 3-kinase pool was subjected to a 40% ammonium sulfate precipitation. Following centrifugation (60 minutes at 13,500 x g), pellets were resuspended in Buffer B (10 mM of potassium phosphate, pH 7.4, containing 6 mM of β-mercaptoethanol, 1 μg/mL of leupeptin, 1 μg/mL of pepstatin A, and 1 mM of MgCl2), and loaded onto a 50 mL hydroxylapatite column (Calbiochem, Inc., La Jolla, Calif.) at 2.5 mL/minute. The column was washed with 150 mL Buffer B until the A280 baseline reached zero, and the kinase was then eluted with a linear gradient of 10-320 mM of KH2 PO4 at 1 mL/minute over 450 minutes.
Active fractions were pooled and then loaded at 3 mL/minute onto a MonoS column (8 ml) (Pharmacia, Inc., Piscataway, N.J.) equilibrated in Buffer C (50 mM of MES, pH 6.2, containing 6 mM of β-mercaptoethanol, 0.1 mM of EGTA, 1 μg/mL of leupeptin, 1 μg/mL of pepstatin A, and 1 mM of MgCl2). PI 3-kinase was eluted with a linear gradient of 0-0.4M KCl in Buffer C over 120 minutes. In assaying fractions, two pools of PI 3-kinase activity were routinely found. The bulk of the activity was found in the flow-through, while about 20% of the activity was eluted in the gradient. Although the material in the gradient had considerable PI 4-kinase activity, essentially no PI 4-kinase activity was associated with the PI 3-kinase eluted in the flow-through. Therefore, the MonoS flow-through was concentrated by tangential flow filtration on a Mini-Ultrasette Omega 50 K membrane (Filtron, Inc., Northborough, Mass.) and diluted in Buffer C to lower the conductivity. The material was then reloaded onto the MonoS column using the above conditions. The PI 3-kinase bound to the column during the wash and was eluted in the gradient. Two pools of phosphatidylinositol kinase activity were obtained in the gradient; each was assayed for PI 3-kinase and PI 4-kinase activity.
Pool I from the MonoS column was diluted with Buffer A and chromatographed on MonoQ (1 ml) and eluted with a gradient of 0-0.4M KCl in Buffer A. The final pool was assayed for PI 3-kinase and PI 4-kinase activity.
PI 3-kinase activity was measured as previously described by Matter, W. F., et al., Biochemical and Biophysical Research Communications, 186: 624-631 (1992). […]

laboratory animals = conditions: even in low dosages, pure form; cited from earlier work

SMILES	IC50 for inhibition of PI-3-kinase [1] [ng/mL]	inhibition vs. PI-3-kinase ([1]; at 10 ng/ml) [%]	toxicity to living creatures (lethality) (laboratory animals)
C=CC(=O)O[C@@H]1C[C@]2(C)C(=O)CC[C@H]2C2=C1[C@]1(C)c3c(coc3C2=O)C(=O)O[C@@H]1COC [m, 11-acrylyl-desacetyl-wortmannin]	0.95		
CCC(=O)O[C@@H]1C[C@]2(C)[C@@H](OC(C)=O)CC[C@H]2C2=C1[C@]1(C)c3c(coc3C2=O)C(=O)O[C@@H]1COC [j, 11-propionyl-17-acetyl-desacetyl-dihydro-Wortmannin]	56.5		
COC[C@H]1OC(=O)c2coc3c2[C@@]1(C)C1=C(C3=O)[C@@H]2CCC(=O)[C@@]2(C)CC1=O [c, 11-dehydro Wortmannin]	1.6		
COC[C@H]1OC(=O)c2coc3c2[C@@]1(C)C1=C(C3=O)[C@@H]2CCC(=O)[C@@]2(C)C[C@H]1OC(=O)CCl [l, 11-chloroacetyldesacetyl-Wortmannin]	1.3		
COC[C@H]1OC(=O)c2coc3c2[C@@]1(C)C1=C(C3=O)[C@@H]2CCC(=O)[C@@]2(C)C[C@H]1O [f, 11-desacetyl wortmannin]	10	50	
CCCCC(=O)O[C@@H]1C[C@]2(C)C(=O)CC[C@H]2C2=C1[C@]1(C)c3c(coc3C2=O)C(=O)O[C@@H]1COC [i, 11-valeryl-desacetyl-Wortmannin]	1.2		
CCCC(=O)O[C@@H]1C[C@]2(C)C(=O)CC[C@H]2C2=C1[C@]1(C)c3c(coc3C2=O)C(=O)O[C@@H]1COC [h, 11-butyryl-desacetyl-Wortmannin]	0.4		
COC[C@H]1OC(=O)c2coc3c2[C@@]1(C)C1=C(C3=O)[C@@H]2CCC(O)[C@@]2(C)C[C@H]1O (stereo partly shown) [d, 11,17-desacetyl-dihydro Wortmannin]	> 10		
COC[C@H]1OC(=O)c2coc3c2[C@@]1(C)C1=C(C3=O)[C@@H]2CCC(=O)[C@@]2(C)C[C@H]1OC(=O)CC(C)C [iA, 11-isovaleryl-desacetyl-Wortmannin]	1.16		
COC[C@H]1OC(=O)c2coc3c2[C@@]1(C)C1=C(C3=O)[C@@H]2CCC(=O)[C@@]2(C)C[C@H]1OC(=O)Cc1ccccc1 [n, 11-phenylacetyl-desacetyl-Wortmannin]	1.53		
CCN(C=C1C(=O)O[C@H](COC)[C@@]2(C)C1=C(O)C(=O)C1=C2[C@H](O)C[C@]2(C)C(=O)CC[C@@H]12)CC [b]	> 10		
CCC(=O)O[C@@H]1C[C@]2(C)C(=O)CC[C@H]2C2=C1[C@]1(C)c3c(coc3C2=O)C(=O)O[C@@H]1COC [g, 11-propionyl-desacetyl-Wortmannin]	0.6		
CCC(=O)O[C@@H]1C[C@]2(C)[C@@H](O)CC[C@H]2C2=C1[C@]1(C)c3c(coc3C2=O)C(=O)O[C@@H]1COC [e, 11-propionyl-17-hydroxy-desacetyl-dihydro-Wortmannin]	0.38		
COC[C@H]1OC(=O)c2coc3c2[C@@]1(C)C1=C(C3=O)[C@@H]2CCC(=O)[C@@]2(C)C[C@H]1OC(=O)CCN(C)C [k, 11-dimethylaminopropionyl-desacetyl-Wortmannin]	8.6		
COC[C@H]1OC(=O)c2coc3c2[C@@]1(C)C1=C(C3=O)[C@@H]2CCC(=O)[C@@]2(C)C[C@H]1OC(C)=O [wortmannin, Wortmannin]			often lethal
